What was measured:
[1] = molecular target: T1, UDP-glucuronosyltransferase 2B4 (Homo sapiens, UniProt P06133); test: Drug metabolism assessed as recombinant human UGT2B4 assessed as N-glucuronidation at 100 uM incubated for 60 mins by LC-MS/MS analysis; format: ADME; details: recombinant enzyme, 1 h
T1 sequence (P06133 whole entry): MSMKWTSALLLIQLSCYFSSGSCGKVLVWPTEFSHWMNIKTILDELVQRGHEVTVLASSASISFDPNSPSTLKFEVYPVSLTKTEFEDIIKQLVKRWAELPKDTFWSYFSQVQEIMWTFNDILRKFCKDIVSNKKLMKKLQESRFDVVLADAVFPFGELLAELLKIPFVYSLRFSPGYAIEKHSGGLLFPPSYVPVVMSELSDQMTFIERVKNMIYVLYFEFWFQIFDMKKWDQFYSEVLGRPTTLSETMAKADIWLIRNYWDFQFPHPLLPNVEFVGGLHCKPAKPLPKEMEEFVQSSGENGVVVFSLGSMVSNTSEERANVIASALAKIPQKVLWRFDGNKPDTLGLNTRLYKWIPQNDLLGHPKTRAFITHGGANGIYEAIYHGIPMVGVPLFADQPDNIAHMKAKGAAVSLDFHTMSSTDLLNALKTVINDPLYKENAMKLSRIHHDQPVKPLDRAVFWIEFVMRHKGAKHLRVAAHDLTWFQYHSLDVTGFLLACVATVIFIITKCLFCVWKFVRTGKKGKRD

[2] = molecular target: T2, UDP-glucuronosyltransferase 1A6 (Homo sapiens, UniProt P19224); test: Drug metabolism assessed as recombinant human UGT1A6 assessed as O-glucuronidation at 100 uM incubated for 60 mins by LC-MS/MS analysis; format: ADME; details: recombinant enzyme, 1 h
T2 sequence (P19224 whole entry): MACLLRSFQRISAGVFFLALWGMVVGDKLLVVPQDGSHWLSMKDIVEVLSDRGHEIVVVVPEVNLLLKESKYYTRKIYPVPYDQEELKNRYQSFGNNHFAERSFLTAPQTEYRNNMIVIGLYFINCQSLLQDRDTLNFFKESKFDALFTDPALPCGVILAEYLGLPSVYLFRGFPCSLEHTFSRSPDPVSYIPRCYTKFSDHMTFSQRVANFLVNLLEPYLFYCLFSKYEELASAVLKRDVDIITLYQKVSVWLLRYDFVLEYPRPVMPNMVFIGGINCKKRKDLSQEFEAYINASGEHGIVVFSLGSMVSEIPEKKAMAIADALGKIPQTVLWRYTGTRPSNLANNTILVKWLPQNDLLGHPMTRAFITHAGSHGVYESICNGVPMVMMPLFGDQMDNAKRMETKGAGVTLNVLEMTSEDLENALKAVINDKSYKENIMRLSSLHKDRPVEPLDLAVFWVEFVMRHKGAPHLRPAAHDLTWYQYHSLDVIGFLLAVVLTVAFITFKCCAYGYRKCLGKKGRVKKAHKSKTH

[3] = molecular target: T3, UDP-glucuronosyltransferase 1A10 (Homo sapiens, UniProt Q9HAW8); test: Drug metabolism assessed as recombinant human UGT1A10 assessed as N-glucuronidation at 100 uM incubated for 60 mins by LC-MS/MS analysis; format: ADME; details: recombinant enzyme, 1 h
T3 sequence (Q9HAW8 whole entry): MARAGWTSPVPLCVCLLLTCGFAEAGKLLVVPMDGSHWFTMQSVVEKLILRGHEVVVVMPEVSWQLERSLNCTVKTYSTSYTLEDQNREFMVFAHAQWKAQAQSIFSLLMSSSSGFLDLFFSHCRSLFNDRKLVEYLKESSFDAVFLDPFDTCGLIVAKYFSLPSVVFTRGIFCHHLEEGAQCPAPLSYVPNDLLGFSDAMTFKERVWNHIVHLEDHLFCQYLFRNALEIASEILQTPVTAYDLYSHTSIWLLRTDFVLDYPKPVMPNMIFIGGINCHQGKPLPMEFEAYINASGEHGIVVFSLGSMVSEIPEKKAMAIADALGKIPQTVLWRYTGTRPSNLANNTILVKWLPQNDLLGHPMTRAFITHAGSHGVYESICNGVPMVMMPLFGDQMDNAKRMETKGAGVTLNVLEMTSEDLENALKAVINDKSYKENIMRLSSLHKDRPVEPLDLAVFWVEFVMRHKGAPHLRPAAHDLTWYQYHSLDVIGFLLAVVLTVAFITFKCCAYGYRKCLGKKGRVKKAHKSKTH

[4] = molecular target: T4, UDP-glucuronosyltransferase 1A9 (Homo sapiens, UniProt O60656); test: Drug metabolism assessed as recombinant human UGT1A9 assessed as O-glucuronidation measured as inhibition constant at 10 to 400 uM incubated for 60 mins by LC-MS/MS analysis
T4 sequence (O60656 whole entry): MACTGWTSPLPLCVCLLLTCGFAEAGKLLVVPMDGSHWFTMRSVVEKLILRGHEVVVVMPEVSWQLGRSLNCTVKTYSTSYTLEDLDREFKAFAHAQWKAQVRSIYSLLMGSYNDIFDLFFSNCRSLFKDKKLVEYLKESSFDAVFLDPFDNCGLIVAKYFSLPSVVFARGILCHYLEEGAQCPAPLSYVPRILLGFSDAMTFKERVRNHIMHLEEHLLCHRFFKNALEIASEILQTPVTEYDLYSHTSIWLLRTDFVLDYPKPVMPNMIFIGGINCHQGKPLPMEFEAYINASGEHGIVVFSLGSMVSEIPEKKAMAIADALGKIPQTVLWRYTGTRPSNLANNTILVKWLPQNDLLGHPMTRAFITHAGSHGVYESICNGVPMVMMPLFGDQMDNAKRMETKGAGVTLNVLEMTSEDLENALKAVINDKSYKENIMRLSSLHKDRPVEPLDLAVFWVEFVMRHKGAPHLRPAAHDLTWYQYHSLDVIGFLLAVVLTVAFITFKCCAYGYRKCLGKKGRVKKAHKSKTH

[5] = molecular target: T1, UDP-glucuronosyltransferase 2B4; test: Drug metabolism assessed as recombinant human UGT2B4 assessed as O-glucuronidation at 100 uM incubated for 60 mins by LC-MS/MS analysis; format: ADME; details: recombinant enzyme, 1 h
UGT1A9 = molecular target: T5, UGT1A9 (Homo sapiens, UniProt O60656); test: Drug metabolism assessed as recombinant human UGT1A9 assessed as O-glucuronidation at 10 to 400 uM incubated for 60 mins by LC-MS/MS analysis
T5 sequence (O60656 whole entry): T4 sequence (O60656 whole entry)

- Drug metabolism [1]: metabolite_not_detected
- Drug metabolism [2]: metabolite_not_detected
- Drug metabolism [3]: metabolite_not_detected
- Ki [4]: 344 µM
- Drug metabolism [5]: metabolite_not_detected
- Km at 1 h, 400 µM (UGT1A9): 174 µM
Compound: O=C(CCCN1CCC(O)(c2ccc(Cl)cc2)CC1)c1ccc(F)cc1 [HALOPERIDOL]

— ChEMBL document CHEMBL3526000 (Drug Metab Dispos, 2012)
